What follows are compounds tested on Musca domestica (assay: Pest control test of Musca domestica adults, sucrose pledget). Conditions: 50 ppm in 40% sucrose liquid; four days after release.
Type: in vivo
Protocol: Test Example 21 Pest Control Test of Musca domestica
A drug solution of the compound of the present invention, which had been adjusted to be 50 ppm with a 40% sucrose liquid, was adsorbed on a pledget, and the pledget was put into a vial. Two adults reared indoors were released thereto. Thereafter, the adults were left to stand indoors at room temperature of 25° C. […] When two adults were all agonized in death, it was judged to be effective.

Row | SMILES | activity against adults (effective when two adults were all agonized in death)
1 | CCN=C(N=c1ccccn1Cc1ccc(Cl)nc1)C(F)(F)F [Compound 1-43] | all the adults are agonized in death
2 | CCCN=C(N=c1ccccn1Cc1ccc(Cl)nc1)C(F)(F)F [Compound 1-44] | all the adults are agonized in death
3 | FC(F)(F)C(=NC1CC1)N=c1ccccn1Cc1ccc(Cl)nc1 [Compound 1-50] | all the adults are agonized in death
4 | C#CCN=C(N=c1ccccn1Cc1ccc(Cl)nc1)C(F)(F)F [Compound 1-56] | all the adults are agonized in death
5 | FC(F)(F)C(=NCc1ccccc1)N=c1ccccn1Cc1ccc(Cl)nc1 [Compound 1-72] | all the adults are agonized in death
6 | FC(F)(F)C(=NCCOc1ccccc1)N=c1ccccn1Cc1ccc(Cl)nc1 [Compound 1-114] | all the adults are agonized in death
7 | FC(F)(F)C(=NCc1ccccn1)N=c1ccccn1Cc1ccc(Cl)nc1 [Compound 1-118] | all the adults are agonized in death
8 | FC(F)(F)C(=NCc1cccnc1)N=c1ccccn1Cc1ccc(Cl)nc1 [Compound 1-119] | all the adults are agonized in death
9 | CSCCN=C(N=c1ccccn1Cc1ccc(Cl)nc1)C(F)(F)F [Compound 1-150] | all the adults are agonized in death
10 | CON=C(N=c1ccccn1Cc1ccc(Cl)nc1)C(F)(F)F [Compound 1-500] | all the adults are agonized in death
11 | C#CCC(=O)ON=C(N=c1ccccn1Cc1ccc(Cl)nc1)C(F)(F)F [Compound 1-518] | all the adults are agonized in death
12 | Cc1ccc(S(=O)(=O)ON=C(N=c2ccccn2Cc2ccc(Cl)nc2)C(F)(F)F)cc1 [Compound 1-531] | all the adults are agonized in death
13 | FC(F)(F)C(=S)N=c1ccccn1Cc1cnc(Cl)s1 [Compound 2-20] | all the adults are agonized in death
14 | O=C(N=c1ccccn1Cc1ccc(F)nc1)C(F)(F)Cl [Compound 3-4] | all the adults are agonized in death
15 | O=C(N=c1ccccn1Cc1ccc(F)nc1)C(F)(F)C(F)(F)F [Compound 3-5] | all the adults are agonized in death
16 | O=C(N=c1ccccn1Cc1ccc(Br)nc1)C(F)F [Compound 4-3] | all the adults are agonized in death
17 | O=C(N=c1ccccn1Cc1ccc(Br)nc1)C(F)(F)Cl [Compound 4-4] | all the adults are agonized in death
18 | O=C(N=c1ccccn1Cc1ccc(Br)nc1)C(F)(F)C(F)(F)F [Compound 4-5] | all the adults are agonized in death
19 | O=C(N=c1ccccn1Cc1cnc(Cl)c(F)c1)C(F)(F)Cl [Compound 5-4] | all the adults are agonized in death
20 | O=C(N=c1ccccn1Cc1cnc(Cl)c(F)c1)C(F)(F)C(F)(F)F [Compound 5-5] | all the adults are agonized in death

What follows are compounds tested on Aphis gossypii (assay: Pest control test of Aphis gossypii, cucumber leaf disk foliar spray). Conditions: Aphis gossypii, 72 h; foliar treatment at 20 ppm; first instar larvae; three days after release; read-out: mortality of larvae.
Type: in vivo
Protocol: Test Example 3 Pest Control Test of Aphis gossypii
A leaf disk having a diameter of 2.0 cm was cut out from a cucumber in pot culture, and a drug solution of the compound of the present invention at a predetermined concentration, which had been prepared so as to be a 50% acetone water (0.05% Tween20 available), was sprayed to the leaf disk. After an air drying process, first instar larvae were released thereto. Thereafter, the larvae were left to stand in a thermostatic chamber (16 hours of light period-8 hours of dark period) at 25° C. […] Test in duplicate.
Mortality of larvae(%)={number of dead larvae/(number of survived larvae+number of dead larvae)}×100

Row | SMILES | mortality at 20 ppm [%]
21 | O=C(/N=c1\ncccn1Cc1ccc(Cl)nc1)C(F)(F)F [Compound 190-2, N-[1-((6-chloropyridin-3-yl)methyl)pyrimidin-2(1H)-ylidene]-2,2,2-trifluoroacetamide] | ≥ 80

Same assay, conditions: Aphis gossypii, 72 h; foliar treatment at 100 ppm; first instar larvae; three days after release; read-out: mortality of larvae

Row | SMILES | mortality at 100 ppm [%]
22 | O=C(/N=c1\ccccn1Cc1ccc(Cl)nc1)OCC(F)(F)F [Compound 1-17, 2,2,2-trifluoroethyl-[1-((6-chloropyridin-3-yl)methyl)pyridin-(2H)-ylidene]carbamate] | ≥ 80
23 | O=C(/N=c1\ncccn1Cc1ccc(Cl)nc1)C(F)(F)F [Compound 190-2, N-[1-((6-chloropyridin-3-yl)methyl)pyrimidin-2(1H)-ylidene]-2,2,2-trifluoroacetamide] | ≥ 80

Same assay, conditions: Aphis gossypii, 72 h; foliar treatment at 500 ppm; first instar larvae; three days after release

Row | SMILES | mortality at 500 ppm [%]
24 | O=C(/N=c1\ccccn1Cc1ccc(Cl)nc1)OCC(F)(F)F [Compound 1-17, 2,2,2-trifluoroethyl-[1-((6-chloropyridin-3-yl)methyl)pyridin-(2H)-ylidene]carbamate] | ≥ 80

Reference: patent US20150005347A1, “NITROGEN-CONTAINING HETEROCYCLIC DERIVATIVE HAVING 2-IMINO GROUP AND PEST CONTROL AGENT INCLUDING THE SAME” (MEIJI SEIKA PHARMA CO., LTD., priority 2012, published 2015)
